In test [1] the target is T1, His tagged PTPN2 (TC45) protein (Homo sapiens, UniProt P17706).
T1 construct: made in house
T1 sequence (P17706 with tags, fused parts or gaps isoform P17706-2): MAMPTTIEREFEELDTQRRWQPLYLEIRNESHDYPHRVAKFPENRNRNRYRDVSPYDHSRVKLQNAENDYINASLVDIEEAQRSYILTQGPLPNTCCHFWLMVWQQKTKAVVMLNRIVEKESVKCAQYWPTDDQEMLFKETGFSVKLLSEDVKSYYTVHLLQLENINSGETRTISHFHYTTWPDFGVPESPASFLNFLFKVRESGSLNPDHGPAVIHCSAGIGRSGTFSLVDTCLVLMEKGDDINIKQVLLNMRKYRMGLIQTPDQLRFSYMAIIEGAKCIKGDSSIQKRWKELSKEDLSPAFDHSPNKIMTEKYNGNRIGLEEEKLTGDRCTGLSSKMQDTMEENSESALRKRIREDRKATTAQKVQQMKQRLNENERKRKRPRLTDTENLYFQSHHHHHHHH
Nature of the test: Mobility shift assay used to determine potency of PTPN2 inhibitors. The class given is biochemical. As to conditions: enzyme 0.5 nM, substrate 2 μM; read-out: PTPN2 MSA IC50. The protocol:
Example 227: Mobility Shift Assay Used to Determine Potency of PTPN2 Inhibitors
Compound activity was determined using in house His tagged PTPN2 (TC45) protein (SEQ ID NO: 1) in an in vitro enzymatic reaction. The enzymatic assay used to determine activity was a mobility shift assay using a LabChip EZ Reader by Caliper Life Sciences. The enzymatic reaction was carried out in assay buffer (50 mM HEPES pH 7.5, 1 mM EGTA, 10 mM EDTA, 0.01% Tween® 20, and 2 mM DTT). The compounds were dispensed on a white 384 well ProxiPlate™ (PerkinElmer Catalog #6008289) plate using the Labcyte Echo at varying concentrations (12 point, 1:3 dilution). The enzyme (at 0.5 nM) was incubated with compound for 10 minutes at room temperature. Then the substrate (phosphorylated insulin receptor probe sequence: ((OG488)-(NH—CH2—CH2—O—CH2—CH2—O—CH2—CO)-T-R-D-I-(PY)-E-T-D-Y-Y-R-K-K-NH2) (SEQ ID NO: 2) was added at 2 μM to the plates and incubated for another 10 minutes at room temperature. Finally, a quench solution (water and 4-bromo-3-(2-oxo-2-propoxyethoxy)-5-(3-{[1-(phenylmethanesulfonyl)piperidin-4-yl]amino}phenyl)thiophene-2-carboxylic acid) was added to the plates, which were then run on the EZ Reader (excitation 488 nm, emission 530 nm) to measure % conversion (the amount of phosphorylated substrate which was de-phosphorylated by PTPN2). […] The % inhibition was then used to calculate the IC50 values.

For test [2], the target named is T2, His tagged full-length PTPN1 protein (Homo sapiens, UniProt P18031).
T2 construct: made in house
T2 sequence (P18031 with tags, fused parts or gaps): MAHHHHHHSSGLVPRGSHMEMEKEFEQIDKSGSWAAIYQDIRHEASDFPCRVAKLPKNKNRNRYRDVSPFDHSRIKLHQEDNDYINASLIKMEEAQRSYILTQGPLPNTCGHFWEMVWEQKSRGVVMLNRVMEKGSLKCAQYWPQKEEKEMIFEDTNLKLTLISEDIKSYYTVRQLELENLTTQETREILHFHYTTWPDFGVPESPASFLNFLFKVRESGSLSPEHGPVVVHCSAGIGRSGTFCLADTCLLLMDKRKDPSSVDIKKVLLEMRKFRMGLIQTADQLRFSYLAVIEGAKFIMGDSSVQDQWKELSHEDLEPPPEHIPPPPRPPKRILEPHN
Description: Mobility shift assay (MSA) used to determine potency of PTPN1 inhibitors. The class given is biochemical. As to conditions: enzyme 0.5 nM, substrate 2 μM. The protocol: Example 228: Mobility Shift Assay (MSA) Used to Determine Potency of PTPN1 Inhibitors
Compound activity was determined using in house His tagged full-length PTPN1 protein (SEQ ID NO: 3) in an in vitro enzymatic reaction. The enzymatic assay used to determine activity is a mobility shift assay using a LabChip EZ Reader by Caliper Life Sciences. The enzymatic reaction was carried out in assay buffer (50 mM HEPES pH 7.5, 1 mM EGTA, 10 mM EDTA, 0.01% Tween® 20, and 2 mM DTT). The compounds were dispensed on a white 384 well ProxiPlate™ (PerkinElmer Cat^# 6008289) plate using a Labcyte Echo® liquid handler at varying concentrations (12 point, 1:3 dilution). The enzyme (at 0.5 nM) was incubated with compound for 10 minutes at room temperature. Then the substrate (phosphorylated insulin receptor probe sequence: ((OG488)-(NH—CH2—CH2—O—CH2—CH2—O—CH2—CO)-T-R-D-I-(PY)-E-T-D-Y-Y-R-K-K-NH2) (SEQ ID NO: 2) was added at 2 μM to the plates and incubated for another 10 minutes at room temperature. Finally, a quench solution (water and 4-bromo-3-(2-oxo-2-propoxyethoxy)-5-(3-{[1-(phenylmethanesulfonyl)piperidin-4-yl]amino}phenyl)thiophene-2-carboxylic acid) was added to the plates, which were then run on the EZ Reader (excitation 488 nm, emission 530 nm) to measure % conversion (the amount of phosphorylated substrate which was de-phosphorylated by PTPN1). […] The % inhibition was then used to calculate the IC50 values.

`O=C1CN(c2c(O)cc3c(c2F)CN(CC2CC4CCC2O4)CC3)S(=O)(=O)N1` (centres unmarked) [Compound 222, 5-{8-fluoro-6-hydroxy-2-[(7-oxabicyclo[2.2.1]heptan-2-yl)methyl]-1,2,3,4-tetrahydroisoquinolin-7-yl}-1λ^6,2,5-thiadiazolidine-1,1,3-trione]: the IC50 in test [1] and in test [2] was 10 to 100 nM throughout.

On to `CC(C)CNCC1Cc2cc(O)c(N3CC(=O)NS3(=O)=O)c(F)c2C1` (centres unmarked) [Compound 275, 5-(4-fluoro-6-hydroxy-2-{[(2-methylpropyl)amino]methyl}-2,3-dihydro-1H-inden-5-yl)-1λ^6,2,5-thiadiazolidine-1,1,3-trione], for which the IC50 in test [1] and in test [2] was 10 to 100 nM in each case.

On to `CC(C)CCOC1CCc2c(cc(O)c(N3CC(=O)NS3(=O)=O)c2F)C1` (centres unmarked) [Compound 314, 5-[1-fluoro-3-hydroxy-6-(3-methylbutoxy)-5,6,7,8-tetrahydronaphthalen-2-yl]-1λ^6,2,5-thiadiazolidine-1,1,3-trione], for which the IC50 in test [1] was 10 to 100 nM; in test [2] it was greater than 100 nM.

Regarding `O=C1CN(c2c(O)cc3c(c2F)CN(CC2CCCN2)CC3)S(=O)(=O)N1` (centres unmarked) [Compound 183, 5-{8-fluoro-6-hydroxy-2-[(pyrrolidin-2-yl)methyl]-1,2,3,4-tetrahydroisoquinolin-7-yl}-1λ^6,2,5-thiadiazolidine-1,1,3-trione], the IC50 in test [1] and in test [2] was greater than 100 nM throughout.

On to `O=C1CN(c2c(O)cc3c(c2F)CC(NCCn2cccn2)CC3)S(=O)(=O)N1` (centres unmarked) [Compound 141, 5-(1-fluoro-3-hydroxy-7-{[2-(1H-pyrazol-1-yl)ethyl]amino}-5,6,7,8-tetrahydronaphthalen-2-yl)-1λ^6,2,5-thiadiazolidine-1,1,3-trione], for which the IC50 was in the range of 1 to 10 nM in test [1] and 10 to 100 nM in test [2].

For the compound `CC(C)CCNC1CCc2c(cc(O)c(N3CC(=O)NS3(=O)=O)c2F)C1` (centres unmarked) [Compound 313, 5-{1-fluoro-3-hydroxy-6-[(3-methylbutyl)amino]-5,6,7,8-tetrahydronaphthalen-2-yl}-1λ^6,2,5-thiadiazolidine-1,1,3-trione], the results for the IC50 in test [1] and in test [2] were 1 to 10 nM and 10 to 100 nM, respectively.

On to `COC1CCc2c(F)c(O)c(N3CC(=O)NS3(=O)=O)c(F)c2C1` (centres unmarked) [Compound 114, 5-(1,4-difluoro-3-hydroxy-7-methoxy-5,6,7,8-tetrahydronaphthalen-2-yl)-1λ^6,2,5-thiadiazolidine-1,1,3-trione], for which the IC50 in test [1] and in test [2] was 10 to 100 nM each time.

Take `CC(F)(F)CNC1CCc2cc(O)c(N3CC(=O)NS3(=O)=O)c(F)c2C1` (centres unmarked) [Compound 132, 5-{7-[(2,2-difluoropropyl)amino]-1-fluoro-3-hydroxy-5,6,7,8-tetrahydronaphthalen-2-yl}-1λ^6,2,5-thiadiazolidine-1,1,3-trione]: the IC50 in test [1] and in test [2] was 10 to 100 nM throughout.

For `O=C1CN(c2c(O)cc3c(c2F)CC(CCC2CC2)CC3)S(=O)(=O)N1` (centres unmarked) [Compound 105, 5-[7-(2-cyclopropylethyl)-1-fluoro-3-hydroxy-5,6,7,8-tetrahydronaphthalen-2-yl]-1λ^6,2,5-thiadiazolidine-1,1,3-trione], the IC50 in test [1] and in test [2] was 1 to 10 nM each time.

On to `COC1CCc2cc(O)c(N3CC(=O)NS3(=O)=O)c(F)c2C1` (centres unmarked) [Compound 110, 5-(1-fluoro-3-hydroxy-7-methoxy-5,6,7,8-tetrahydronaphthalen-2-yl)-1λ^6,2,5-thiadiazolidine-1,1,3-trione], for which the IC50 in test [1] and in test [2] was 10 to 100 nM in each case.

For `CC(C)CC(=N)NC1CCc2cc(O)c(N3CC(=O)NS3(=O)=O)c(F)c2C1` (centres unmarked) [Compound 195, N-[8-fluoro-6-hydroxy-7-(1,1,4-trioxo-1λ^6,2,5-thiadiazolidin-2-yl)-1,2,3,4-tetrahydronaphthalen-2-yl]-3-methylbutanimidamide], the IC50 in test [1] and in test [2] was 10 to 100 nM each time.

For `O=C1CN(c2c(O)cc3c(c2F)CCC(NCC2CC2)C3)S(=O)(=O)N1` (centres unmarked) [Compound 318, 5-{6-[(cyclopropylmethyl)amino]-1-fluoro-3-hydroxy-5,6,7,8-tetrahydronaphthalen-2-yl}-1λ^6,2,5-thiadiazolidine-1,1,3-trione], the IC50 in test [1] lay in the range of 1 to 10 nM; in test [2], 10 to 100 nM.

For `O=C1CN(c2c(O)cc3c(c2F)CC(OC(=O)Nc2ccccc2)CC3)S(=O)(=O)N1` (centres unmarked) [Compound 149, 8-fluoro-6-hydroxy-7-(1,1,4-trioxo-1λ^6,2,5-thiadiazolidin-2-yl)-1,2,3,4-tetrahydronaphthalen-2-yl Phenylcarbamate], the IC50 fell in the range of 1 to 10 nM in test [1] and 10 to 100 nM in test [2].

As to `O=C1CN(c2c(O)cc3c(c2F)CCC(NCCCC(F)F)C3)S(=O)(=O)N1` (centres unmarked) [Compound 311, 5-{6-[(4,4-difluorobutyl)amino]-1-fluoro-3-hydroxy-5,6,7,8-tetrahydronaphthalen-2-yl}-1λ^6,2,5-thiadiazolidine-1,1,3-trione], the IC50 in test [1] and in test [2] was 1 to 10 nM each time.

Turning to `O=C1CN(c2c(O)cc3c(c2F)CC(NCCC2CC2)CC3)S(=O)(=O)N1` (centres unmarked) [Compound 101, 5-{7-[(2-cyclopropylethyl)amino]-1-fluoro-3-hydroxy-5,6,7,8-tetrahydronaphthalen-2-yl}-1λ^6,2,5-thiadiazolidine-1,1,3-trione], the IC50 in test [1] and in test [2] was 1 to 10 nM each time.

`CC(C)CCN(Cc1ccccn1)C1CCc2cc(O)c(N3CC(=O)NS3(=O)=O)c(F)c2C1` (centres unmarked) [Compound 154, 5-(1-fluoro-3-hydroxy-7-{(3-methylbutyl)[(pyridin-2-yl)methyl]amino}-5,6,7,8-tetrahydronaphthalen-2-yl)-1λ^6,2,5-thiadiazolidine-1,1,3-trione]: the IC50 lay in the range of 1 to 10 nM in test [1] and 10 to 100 nM in test [2].

Take `CC(O)CCOC(=O)N1Cc2c(cc(O)c(N3CC(=O)NS3(=O)=O)c2F)C(F)(F)C1` (centres unmarked) [Compound 304, 3-hydroxybutyl 4,4,8-trifluoro-6-hydroxy-7-(1,1,4-trioxo-1λ^6,2,5-thiadiazolidin-2-yl)-3,4-dihydroisoquinoline-2(1H)-carboxylate]: the IC50 in test [1] and in test [2] was greater than 100 nM in each case.

Consider `O=C1CN(c2c(O)cc3c(c2F)CC(CNCCCC2CC2)C3)S(=O)(=O)N1` (centres unmarked) [Compound 274, 5-(2-{[(3-cyclopropylpropyl)amino]methyl}-4-fluoro-6-hydroxy-2,3-dihydro-1H-inden-5-yl)-1λ^6,2,5-thiadiazolidine-1,1,3-trione], for which the IC50 in test [1] and in test [2] was 1 to 10 nM throughout.

For `CC(C)CCOC1CCc2cc(O)c(N3CC(=O)NS3(=O)=O)c(F)c2C1` (centres unmarked) [Compound 100, 5-[1-fluoro-3-hydroxy-7-(3-methylbutoxy)-5,6,7,8-tetrahydronaphthalen-2-yl]-1λ^6,2,5-thiadiazolidine-1,1,3-trione], the IC50 in test [1] was 10 to 100 nM; in test [2] it was 1 to 10 nM.

For orientation: IC50 means the concentration needed to halve the response being measured.

(Values after patent US10851073B2, “Protein tyrosine phosphatase inhibitors and methods of use thereof” (Calico Life Sciences LLC, priority 2019, dated 2020).)
